Literature values, collected in patent US20100172957A1, “EFLUCIMIBE MEDICAMENTS FOR PREVENTING/TREATING A DISEASE DUE TO SEBACEOUS GLAND DYSFUNCTION IN HUMANS OR ANIMALS” (GALDERMA RESEARCH & DEVELOPMENT, priority 2007, published 2010).

Test system: sebum production
Conditions: current treatment, background statement

CC1=C(/C=C/C(C)=C/C=C/C(C)=C\C(=O)O)C(C)(C)CCC1 [isotretinoin]
decrease of sebum production: ~90%
